Data as given in ChEMBL document CHEMBL1201862, “PubChem BioAssay data set” (2004).
Active and inactive are the calls of the source.

Experiments:
Caspase-3 = molecular target: T1, Caspase-3 (Homo sapiens, UniProt P42574); assay: inhibition of recombinant caspase-3 activity – biochemical, luminescence, set 2, selectivity assay for SENP protease inhibitor project, SAR follow-up (AID 588599); type: functional
T1 sequence (P42574 whole entry): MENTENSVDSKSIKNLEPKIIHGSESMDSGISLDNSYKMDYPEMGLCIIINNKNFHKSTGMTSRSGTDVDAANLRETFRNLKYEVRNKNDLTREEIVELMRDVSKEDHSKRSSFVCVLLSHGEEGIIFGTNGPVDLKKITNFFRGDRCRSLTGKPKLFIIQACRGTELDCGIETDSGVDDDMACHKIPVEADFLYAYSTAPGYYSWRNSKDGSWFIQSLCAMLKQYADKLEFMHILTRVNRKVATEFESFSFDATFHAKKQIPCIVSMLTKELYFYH

[1] = molecular target: T2, Sentrin-specific protease 8 (Homo sapiens, UniProt Q96LD8); assay: inhibition of sentrin protease 8 – biochemical, luminescence, set 2, SAR follow-up (AID 588601); type: functional
T2 sequence (Q96LD8 whole entry): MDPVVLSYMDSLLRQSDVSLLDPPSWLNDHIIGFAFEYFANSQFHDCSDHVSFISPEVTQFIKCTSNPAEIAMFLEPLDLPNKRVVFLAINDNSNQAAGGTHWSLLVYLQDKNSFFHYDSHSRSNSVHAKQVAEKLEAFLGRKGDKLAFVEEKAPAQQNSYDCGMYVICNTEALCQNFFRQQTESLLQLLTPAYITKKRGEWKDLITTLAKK

[2] = molecular target: T3, Sentrin-specific protease 7 (Homo sapiens, UniProt Q9BQF6); assay: inhibition of human SENP7 cleavage activity – biochemical, luminescence, set 2, SAR follow-up (AID 588600); type: functional
T3 sequence (Q9BQF6 whole entry): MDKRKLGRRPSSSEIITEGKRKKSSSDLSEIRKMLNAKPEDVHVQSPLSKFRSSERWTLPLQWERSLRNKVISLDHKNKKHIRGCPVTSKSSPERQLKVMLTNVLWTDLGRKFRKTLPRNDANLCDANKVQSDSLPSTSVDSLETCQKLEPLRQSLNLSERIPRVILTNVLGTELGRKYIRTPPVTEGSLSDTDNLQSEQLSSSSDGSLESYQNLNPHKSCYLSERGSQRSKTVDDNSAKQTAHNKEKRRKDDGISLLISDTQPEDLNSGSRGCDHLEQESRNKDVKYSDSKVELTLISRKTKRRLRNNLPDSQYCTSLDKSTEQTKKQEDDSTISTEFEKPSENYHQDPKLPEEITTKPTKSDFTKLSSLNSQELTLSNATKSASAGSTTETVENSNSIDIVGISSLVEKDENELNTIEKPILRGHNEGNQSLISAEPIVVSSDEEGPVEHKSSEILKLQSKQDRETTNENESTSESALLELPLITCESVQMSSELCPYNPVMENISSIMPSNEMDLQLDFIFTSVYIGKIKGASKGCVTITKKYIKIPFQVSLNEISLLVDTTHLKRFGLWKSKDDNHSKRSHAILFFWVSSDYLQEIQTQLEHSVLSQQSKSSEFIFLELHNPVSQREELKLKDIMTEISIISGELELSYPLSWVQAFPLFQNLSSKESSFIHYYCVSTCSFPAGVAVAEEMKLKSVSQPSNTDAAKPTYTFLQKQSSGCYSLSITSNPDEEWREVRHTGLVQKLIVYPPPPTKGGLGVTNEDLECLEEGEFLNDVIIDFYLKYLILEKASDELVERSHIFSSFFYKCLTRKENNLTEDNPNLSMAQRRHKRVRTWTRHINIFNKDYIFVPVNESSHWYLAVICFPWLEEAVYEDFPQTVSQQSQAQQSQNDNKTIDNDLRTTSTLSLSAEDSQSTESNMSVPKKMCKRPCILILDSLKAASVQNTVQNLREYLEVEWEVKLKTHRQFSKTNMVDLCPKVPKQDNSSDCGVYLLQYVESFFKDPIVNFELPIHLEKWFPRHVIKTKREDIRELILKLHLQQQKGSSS

[3] = molecular target: T4, Sentrin-specific protease 6 (Homo sapiens, UniProt Q9GZR1); assay: inhibition of human SENP6 catalytic domain – biochemical, luminescence, set 2, SAR follow-up (AID 588598); type: functional
T4 sequence (Q9GZR1 whole entry): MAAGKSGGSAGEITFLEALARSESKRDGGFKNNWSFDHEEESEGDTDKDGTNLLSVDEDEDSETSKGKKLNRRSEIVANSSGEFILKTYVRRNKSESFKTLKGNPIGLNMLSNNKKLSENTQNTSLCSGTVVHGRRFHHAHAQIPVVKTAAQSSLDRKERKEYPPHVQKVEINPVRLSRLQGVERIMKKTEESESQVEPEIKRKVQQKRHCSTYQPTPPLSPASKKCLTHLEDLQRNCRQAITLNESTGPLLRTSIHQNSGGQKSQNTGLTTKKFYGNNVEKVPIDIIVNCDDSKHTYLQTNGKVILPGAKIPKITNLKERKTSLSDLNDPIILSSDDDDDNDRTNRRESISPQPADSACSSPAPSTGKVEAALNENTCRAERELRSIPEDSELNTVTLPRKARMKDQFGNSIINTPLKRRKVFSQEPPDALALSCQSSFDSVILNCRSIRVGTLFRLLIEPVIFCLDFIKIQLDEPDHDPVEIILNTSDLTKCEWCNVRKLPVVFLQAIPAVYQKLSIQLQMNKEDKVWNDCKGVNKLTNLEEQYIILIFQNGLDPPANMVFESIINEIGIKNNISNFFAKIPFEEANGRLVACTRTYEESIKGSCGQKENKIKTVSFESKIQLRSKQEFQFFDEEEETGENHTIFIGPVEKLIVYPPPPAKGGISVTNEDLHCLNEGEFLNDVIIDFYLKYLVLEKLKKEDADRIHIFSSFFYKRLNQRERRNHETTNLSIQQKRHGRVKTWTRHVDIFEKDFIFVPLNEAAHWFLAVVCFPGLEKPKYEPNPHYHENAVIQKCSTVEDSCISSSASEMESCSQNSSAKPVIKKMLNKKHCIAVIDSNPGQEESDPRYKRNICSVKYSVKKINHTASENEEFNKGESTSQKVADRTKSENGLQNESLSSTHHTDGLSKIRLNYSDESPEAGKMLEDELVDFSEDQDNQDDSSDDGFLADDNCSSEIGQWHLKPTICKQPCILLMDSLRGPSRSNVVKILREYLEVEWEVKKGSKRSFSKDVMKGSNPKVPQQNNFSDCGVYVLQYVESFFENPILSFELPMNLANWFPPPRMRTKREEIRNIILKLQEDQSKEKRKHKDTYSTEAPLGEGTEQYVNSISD

[4] = Trypanosoma cruzi growth suppression in host cells – NIH3T3 host cells, beta-gal luminescence, confirmation (AID 2044); type: functional, cell-based;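 further: intracellular parasites grown in NIH/3T3 mouse fibroblasts as host cells; luminescent beta-galactosidase reporter signal from transgenic T. cruzi replicating inside host cells; inhibitors lower the luminescence signal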
[5] = NIH3T3 cell viability loss – ATP luminescence, mouse fibroblasts, counter-screen, dose response (AID 2010); type: functional, cell-based;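 further: cells exposed to compound for about 90 hours before reading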
[6] = molecular target: T5, Microphthalmia-associated transcription factor (Homo sapiens, UniProt O75030); assay: reducers of TRPM1 reporter luminescence, concentration series – cell-based, SK-MEL-5, cherry-picked, set 3, MITF inhibitor project, dose response (AID 493073); type: functional;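 further: SK-MEL-5 melanoma cells with luciferase driven by the MITF target TRPM1 promoter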
T5 sequence (O75030 whole entry): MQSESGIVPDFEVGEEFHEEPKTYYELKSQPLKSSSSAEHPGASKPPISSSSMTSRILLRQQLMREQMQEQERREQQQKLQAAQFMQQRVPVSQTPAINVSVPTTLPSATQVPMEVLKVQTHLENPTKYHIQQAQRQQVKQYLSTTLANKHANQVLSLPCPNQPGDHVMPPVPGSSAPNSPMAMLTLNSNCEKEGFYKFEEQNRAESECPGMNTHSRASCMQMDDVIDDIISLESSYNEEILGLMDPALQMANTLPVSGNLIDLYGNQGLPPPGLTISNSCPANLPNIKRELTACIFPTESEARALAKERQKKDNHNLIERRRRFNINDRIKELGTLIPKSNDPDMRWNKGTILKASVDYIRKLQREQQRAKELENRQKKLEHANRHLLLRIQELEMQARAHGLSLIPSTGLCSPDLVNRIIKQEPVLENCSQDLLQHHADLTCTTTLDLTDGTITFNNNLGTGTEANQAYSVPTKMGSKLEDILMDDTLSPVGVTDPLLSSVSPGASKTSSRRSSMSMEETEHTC

[7] = molecular target: V-type proton ATPase subunit c' (Saccharomyces cerevisiae S288c, UniProt P32842); assay: Dose Response with BCECF Assay for V-ATPase inhibitors that increase vacuolar pH, Powder Set 1.; type: functional; details: read-out: EC50_MICROM
V-type proton ATPase subunit c', sequence (P32842 whole entry): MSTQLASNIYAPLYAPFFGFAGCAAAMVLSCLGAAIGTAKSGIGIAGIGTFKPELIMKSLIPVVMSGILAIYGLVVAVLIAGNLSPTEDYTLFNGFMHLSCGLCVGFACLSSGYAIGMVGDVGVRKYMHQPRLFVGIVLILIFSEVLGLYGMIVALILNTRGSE

| SMILES | IC50 (Caspase-3) | IC50 [1] | IC50 [2] | IC50 [3] | EC50 [4] | EC50 [5] | AC50 [6] | EC50 [7] |
| --- | --- | --- | --- | --- | --- | --- | --- | --- |
| O=C(Cc1ccc(C(F)(F)F)cc1[N+](=O)[O-])N/N=C/c1c[nH]c2ccccc12 | > 99 µM (inactive) | > 99 µM (inactive) | > 99 µM (inactive) | > 99 µM (inactive) | – | – | – | – |
| COc1ccc2nc(N3CCN(C(=O)c4ccc([N+](=O)[O-])o4)CC3)sc2c1 | – | – | – | – | 0.434 µM (active) | 39.5 µM (active) | 5.81 µM (active) | 0.728 µM (active) |
